Assay results reported in ChEMBL document CHEMBL1125018, “Evidence for nitroxyl in the catalase-mediated bioactivation of the alcohol deterrent agent cyanamide” (J Med Chem, 1990).
Several values for one entry are separate records, joined by “and”; a condition that tells them apart may be missing. Equal values may be shown once.

Tests used:
[1] = Nitrous oxide formed in the oxidation of 15NH2-labeled cyanamide by catalase/glucose-glucose oxidase using gas chromatography.
[2] = Nitrous oxide formed in the oxidation of unlabeled cyanamide by catalase/glucose-glucose oxidase using gas chromatography.
[3] = Nitrous oxide formed in the oxidation of U-labeled [N15]-cyanamide by catalase/glucose-glucose oxidase using gas chromatography

## N#CN
[1]
  N20 formed: 186 nM
[2]
  N20 formed: 497 nM and 440 nM
[3]
  N20 formed: 538 nM
